Assay results taken from ChEMBL document CHEMBL4177545, “Potential Antiosteoporotic Natural Product Lead Compounds That Inhibit 17β-Hydroxysteroid Dehydrogenase Type 2” (J Nat Prod, 2017).

Tests used:
[1] = molecular target: T1, 17-beta-hydroxysteroid dehydrogenase type 1 (Homo sapiens, UniProt P14061); test: Inhibition of human 17beta-HSD1 expressed in HEK293 cell lysates incubated for 10 mins using [2,4,6,7-3H]-estrone and NADPH by scintillation counting method
T1 sequence (P14061 whole entry): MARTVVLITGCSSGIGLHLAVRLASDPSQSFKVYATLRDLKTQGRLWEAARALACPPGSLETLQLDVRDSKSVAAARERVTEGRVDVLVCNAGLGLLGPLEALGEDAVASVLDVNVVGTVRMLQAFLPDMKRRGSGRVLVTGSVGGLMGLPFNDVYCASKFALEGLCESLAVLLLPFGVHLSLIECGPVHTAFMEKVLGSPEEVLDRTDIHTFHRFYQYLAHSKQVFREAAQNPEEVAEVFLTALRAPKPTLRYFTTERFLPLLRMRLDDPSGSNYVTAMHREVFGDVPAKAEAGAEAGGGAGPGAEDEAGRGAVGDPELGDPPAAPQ

Aromatase = molecular target: T2, Aromatase (Homo sapiens, UniProt P11511); test: Inhibition of aromatase (unknown origin)
T2 sequence (P11511 whole entry): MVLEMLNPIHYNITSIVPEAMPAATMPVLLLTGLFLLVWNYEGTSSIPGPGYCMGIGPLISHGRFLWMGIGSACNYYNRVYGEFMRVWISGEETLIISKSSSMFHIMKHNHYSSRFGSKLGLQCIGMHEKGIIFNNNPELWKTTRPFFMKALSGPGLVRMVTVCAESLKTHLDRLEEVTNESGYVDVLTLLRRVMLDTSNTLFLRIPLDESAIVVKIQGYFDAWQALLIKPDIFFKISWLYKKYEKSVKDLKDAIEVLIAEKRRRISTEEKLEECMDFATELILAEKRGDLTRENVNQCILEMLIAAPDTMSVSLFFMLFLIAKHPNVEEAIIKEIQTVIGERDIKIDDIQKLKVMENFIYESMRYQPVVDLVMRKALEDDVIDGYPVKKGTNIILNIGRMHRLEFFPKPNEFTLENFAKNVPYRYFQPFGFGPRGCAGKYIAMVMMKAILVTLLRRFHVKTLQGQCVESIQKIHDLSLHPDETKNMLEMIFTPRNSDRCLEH

Estrogen receptor beta = Estrogen receptor beta (Homo sapiens, UniProt Q92731); test: Displacement of estradiol from human ERbetaa expressed in yeast cells; format: cell-based
Sequence of Estrogen receptor beta (Q92731 whole entry): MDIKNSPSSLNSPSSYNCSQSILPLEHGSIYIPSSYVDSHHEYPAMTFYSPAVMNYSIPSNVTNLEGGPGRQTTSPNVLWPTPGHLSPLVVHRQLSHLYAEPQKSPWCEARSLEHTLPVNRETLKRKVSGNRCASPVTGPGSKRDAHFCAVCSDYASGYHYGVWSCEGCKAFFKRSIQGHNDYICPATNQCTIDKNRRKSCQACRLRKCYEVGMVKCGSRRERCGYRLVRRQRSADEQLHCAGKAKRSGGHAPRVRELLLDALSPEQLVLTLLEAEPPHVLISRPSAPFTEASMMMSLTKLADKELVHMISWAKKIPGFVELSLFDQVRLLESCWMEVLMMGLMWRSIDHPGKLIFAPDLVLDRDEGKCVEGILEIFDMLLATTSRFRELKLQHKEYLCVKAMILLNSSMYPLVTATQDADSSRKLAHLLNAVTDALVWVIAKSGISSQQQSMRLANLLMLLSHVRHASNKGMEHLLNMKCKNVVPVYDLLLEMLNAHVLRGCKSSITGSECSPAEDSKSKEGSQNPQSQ

Estrogen receptor = molecular target: T3, Estrogen receptor (Homo sapiens, UniProt P03372); test: Displacement of estradiol from human ERalpha expressed in yeast cells; format: cell-based
T3 sequence (P03372 whole entry): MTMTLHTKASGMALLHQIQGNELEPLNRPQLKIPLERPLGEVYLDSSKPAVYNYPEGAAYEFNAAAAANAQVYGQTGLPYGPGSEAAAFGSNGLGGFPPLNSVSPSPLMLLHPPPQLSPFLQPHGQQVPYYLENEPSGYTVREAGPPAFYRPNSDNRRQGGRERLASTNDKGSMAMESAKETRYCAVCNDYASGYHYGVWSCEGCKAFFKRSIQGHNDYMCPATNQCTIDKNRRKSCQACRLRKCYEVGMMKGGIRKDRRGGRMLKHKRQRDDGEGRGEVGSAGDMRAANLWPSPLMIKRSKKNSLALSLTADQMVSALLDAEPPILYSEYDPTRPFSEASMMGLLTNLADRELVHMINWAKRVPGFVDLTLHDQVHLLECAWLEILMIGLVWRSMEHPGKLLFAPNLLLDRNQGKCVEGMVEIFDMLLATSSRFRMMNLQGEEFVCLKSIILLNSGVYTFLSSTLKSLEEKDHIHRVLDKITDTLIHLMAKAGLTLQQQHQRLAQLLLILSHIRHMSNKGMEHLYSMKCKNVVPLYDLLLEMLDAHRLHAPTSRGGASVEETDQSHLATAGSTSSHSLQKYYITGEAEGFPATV

Homo sapiens = species on record: Homo sapiens; test: Selectivity index, ratio of inhibition of human 17beta-HSD1 expressed in HEK293 cell lysates to inhibition of human 17beta-HSD2 expressed in HEK293 cell lysates

| Compound | IC50 [1] | other results |
| --- | --- | --- |
| O=C(Cc1ccc(O)c(Cl)c1)NCCc1ccccc1 | Not Active | – |
| O=C(/C=C/c1ccc(O)c(O)c1)O[C@H](Cc1ccc(O)c(O)c1)C(=O)O [ROSMARINIC ACID] | Not Active | – |
| CCOC(=O)c1ccc(O)c(OC)c1 | Not Active | – |
| O=C(Cc1ccc(O)c(Cl)c1)NCc1ccccc1 | Not Active | – |
| O=C(/C=C/c1ccc(O)cc1)c1ccc(O)cc1O [ISOLIQUIRITIGENIN] | – | IC50 (Aromatase): 3.8 µM; IC50 (Estrogen receptor beta): 0.269 µM; IC50 (Estrogen receptor): 1.87 µM |
| COc1cc(/C=C/C(=O)CC(=O)/C=C/c2ccc(O)c(OC)c2)ccc1O | – | Selectivity Index (Homo sapiens): 12 |
| O=C(Cc1ccc(O)c(Cl)c1)NCCc1c[nH]c2ccccc12 | Not Active | – |
| O=C(Cc1ccc(O)c(Cl)c1)NCc1ccccc1Cl | – | Selectivity Index (Homo sapiens): 25 |
